Values after ≈ are worked out from the molar mass of the structure shown. Counter-ions that a name gives are not always drawn. Like-named read-outs stand apart in the source and are kept apart here.
Tests used:
[1] = tested on: A. baumannii APV00473; assay: MIC, broth microdilution; format: cell-based; details: Acinetobacter baumannii; A. baumannii APV00473, ciprofloxacin-resistant
Protocol: (§1) MICs were determined by the broth microdilution method (the agar dilution method was used only for N. gonorrhoeae) according to CLSI guidelines.

[2] = tested on: A. baumannii ATCC 19606; assay: MIC, broth microdilution; format: cell-based; details: Acinetobacter baumannii, ATCC19606; A. baumannii ATCC 19606, ciprofloxacin-susceptible
Protocol: as §1

[3] = tested on: E. coli 4SI; assay: MIC, broth microdilution; format: cell-based; details: Escherichia coli, ciprofloxacin-resistant
Protocol: as §1

[4] = tested on: S. pyogenes APV00074; assay: MIC, broth microdilution; format: cell-based; details: Streptococcus pyogenes; S. pyogenes APV00074, ciprofloxacin-susceptible
Protocol: as §1

[5] = tested on: S. pyogenes APV00083; assay: MIC, broth microdilution; format: cell-based; details: Streptococcus pyogenes; S. pyogenes APV00083, ciprofloxacin-susceptible
Protocol: as §1

[6] = tested on: K. pneumoniae AcrAB- mutant; assay: microbe, parasite or virus in culture; format: cell-based; details: Klebsiella pneumoniae
Protocol: (§2) The bacterial reference strains used in this study were purchased from ATCC (American Type Culture Collection) via LGC Standards (Middlesex, UK). […] Clinical MDR isolates were provided by Aptuit, the IHMA Europa Sàrl repository (Epalinges, Switzerland) and the Statens Serum Institute (Copenhagen, Denmark).
as §1

[7] = tested on: S. aureus clinical isolates (n = 10); assay: microbe, parasite or virus in culture; format: cell-based, Staphylococcus aureus; details: for MIC range / MIC50 / MIC90: S. aureus MDR clinical isolates (n = 10)
Protocol: as §2, §1
(§3) The results obtained using clinical isolates are reported as MIC50 and MIC90 values.

[8] = tested on: A. baumannii clinical isolates (n = 10); assay: microbe, parasite or virus in culture; format: cell-based, Acinetobacter baumannii; details: for MIC50 / MIC90: Acinetobacter baumannii
Protocol: as §2, §1, §3

[9] = tested on: C. difficile ATCC 700057; assay: MIC, broth microdilution; format: cell-based, Clostridium difficile; details: Clostridioides difficile, ATCC700057
Protocol: MICs were determined by the broth microdilution method (the agar dilution method was used only for N. gonorrhoeae) according to CLSI guidelines. […] The MIC values of antibiotics used in clinical practice were interpreted according to the susceptibility interpretive criteria reported in the appropriate CLSI Tables (M100-S25, CLSI, 2015).

[10] = tested on: C. difficile clinical isolates (n = 21); assay: MIC, multidrug-resistant clinical isolates; format: cell-based, Clostridium difficile; details: Clostridioides difficile, C. difficile clinical isolates (n = 21); for MIC50: read-out: MIC50; for MIC90: read-out: MIC90; for MIC: read-out: MIC range
Protocol: as §2, §1, §3

[11] = tested on: E. coli clinical isolates (n = 36); assay: MIC, multidrug-resistant clinical isolates; format: cell-based, Escherichia coli; details: Escherichia coli, E. coli MDR clinical isolates (n = 36); for MIC50: read-out: MIC50; for MIC90: read-out: MIC90
Protocol: as §2, §1, §3

[12] = tested on: E. coli ATCC 25922; assay: Minimal bactericidal concentration; format: cell-based, Escherichia coli
Protocol: (§4) Minimal bactericidal concentrations (MBCs) were determined according to the procedure described by Knapp. Viable counts were performed after plates were incubated at 37°C for 24 hours. The MBC was defined as the lowest concentration that reduced the viability of the initial bacterial inoculum by ≥99.9%.

[13] = tested on: S. aureus ATCC 29213; assay: Minimal bactericidal concentration; format: cell-based, Staphylococcus aureus
Protocol: as §4

[14] = tested on: S. aureus BAA-1720; assay: Minimal bactericidal concentration; format: cell-based, Staphylococcus aureus
Protocol: as §4

[15] = tested on: E. coli ATCC 25922; assay: Time-kill assay; format: cell-based, Escherichia coli; details: 1× to 4× MIC, over 24 hours
Protocol: Time-kill experiments were performed according to the procedure reported by Knapp. […] A drug-free control was included in each experiment. The bacterial cultures were standardized to obtain an initial inoculum that ranged from 5×10^5 to 5×10^6 CFU/ml. The cultures were incubated at 37°C in a shaking bath. At 0, 2, 4, 8 and 24-hour intervals, viable counts were performed by spotting (in triplicate) 10 μl aliquots of suitable dilutions of the cultures onto Mueller-Hinton agar (MHA, Oxoid, Basingstoke, UK) plates. After incubation at 37°C for 24 hours, the bactericidal activity, namely, the ability to reduce the initial inoculum by 3 log10 CFU/ml, was assessed for each tested concentration over time.

[16] = tested on: E. coli ATCC 25922; assay: Post-antibiotic effect (PAE); format: cell-based, Escherichia coli; details: 1× and 4× MIC
Protocol: A drug-free control was included in each experiment. After being exposed to the drug for 1 hour, viable counts were conducted in triplicate by spotting aliquots (10 μl) of suitable dilutions onto MHA plates. The drugs were removed by diluting the bacterial cultures (1:1000) in Cation-Adjusted Mueller-Hinton Broth (CAMHB; Sigma-Aldrich). The diluted cultures were incubated in a shaking bath at 37°C. To monitor the ongoing suppression of bacterial growth over time (5 hours), aliquots from each broth culture were periodically collected, diluted and plated to perform subsequent viable counts (in triplicate).

[17] = tested on: S. aureus ATCC 29213; format: cell-based, Staphylococcus aureus
[18] = tested on: CYP1A, CYP2B6, CYP2C8, CYP2C9, CYP2D6 and CYP3A4; assay: Inhibition of P450 isoenzymes; format: in vitro ADME; details: human, read-out: % inhibition of CYP450 isoenzymes other than CYP2C19
From the text: (§5) Inhibition of P450 isoenzymes.

[19] = target: CYP2C19 (Homo sapiens, UniProt P33261); assay: Inhibition of P450 isoenzymes; format: in vitro ADME
From the text: as §5

[20] = target: T1, hERG channel (Homo sapiens, UniProt Q12809); assay: hERG automated patch clamp assay; format: cell-based; details: CHO-K1, read-out: IC50 against hERG channels
T1 construct: expressed in transfected cells; host or cells: CHO-K1
From the text: hERG automated patch clamp assay. The human recombinant ERG CHO-K1 cell line was used in an automated patch clamp assay (qPatch system) to evaluate the hERG channel blockade potential of compounds 1 and 2 [36]. Concentration (log) response curves were fitted to a logistic equation to generate estimates of the 50% inhibitory value.

[21] = tested on: S. aureus ATCC 29213 and S. aureus BAA-1720; assay: MIC in the presence of 20% human serum
[22] = Staphylococcus aureus, read-out: MIC50
[23] = Staphylococcus aureus, read-out: MIC90

CYP2C19, sequence (P33261 whole entry): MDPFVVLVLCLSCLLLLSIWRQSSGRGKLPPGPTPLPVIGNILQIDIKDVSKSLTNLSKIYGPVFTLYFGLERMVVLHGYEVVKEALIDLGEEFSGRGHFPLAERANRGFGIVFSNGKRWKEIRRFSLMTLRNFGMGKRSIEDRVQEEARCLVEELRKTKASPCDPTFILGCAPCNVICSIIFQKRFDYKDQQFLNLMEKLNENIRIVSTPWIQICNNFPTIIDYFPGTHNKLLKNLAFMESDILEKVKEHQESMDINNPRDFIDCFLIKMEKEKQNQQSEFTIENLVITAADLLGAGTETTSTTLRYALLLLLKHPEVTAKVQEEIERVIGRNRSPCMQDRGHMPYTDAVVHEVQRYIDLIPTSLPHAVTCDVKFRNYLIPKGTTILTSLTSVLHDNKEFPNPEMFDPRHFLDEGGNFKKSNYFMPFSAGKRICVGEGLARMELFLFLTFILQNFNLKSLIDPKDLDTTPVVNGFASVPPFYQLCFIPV
T1 sequence (Q12809 whole entry): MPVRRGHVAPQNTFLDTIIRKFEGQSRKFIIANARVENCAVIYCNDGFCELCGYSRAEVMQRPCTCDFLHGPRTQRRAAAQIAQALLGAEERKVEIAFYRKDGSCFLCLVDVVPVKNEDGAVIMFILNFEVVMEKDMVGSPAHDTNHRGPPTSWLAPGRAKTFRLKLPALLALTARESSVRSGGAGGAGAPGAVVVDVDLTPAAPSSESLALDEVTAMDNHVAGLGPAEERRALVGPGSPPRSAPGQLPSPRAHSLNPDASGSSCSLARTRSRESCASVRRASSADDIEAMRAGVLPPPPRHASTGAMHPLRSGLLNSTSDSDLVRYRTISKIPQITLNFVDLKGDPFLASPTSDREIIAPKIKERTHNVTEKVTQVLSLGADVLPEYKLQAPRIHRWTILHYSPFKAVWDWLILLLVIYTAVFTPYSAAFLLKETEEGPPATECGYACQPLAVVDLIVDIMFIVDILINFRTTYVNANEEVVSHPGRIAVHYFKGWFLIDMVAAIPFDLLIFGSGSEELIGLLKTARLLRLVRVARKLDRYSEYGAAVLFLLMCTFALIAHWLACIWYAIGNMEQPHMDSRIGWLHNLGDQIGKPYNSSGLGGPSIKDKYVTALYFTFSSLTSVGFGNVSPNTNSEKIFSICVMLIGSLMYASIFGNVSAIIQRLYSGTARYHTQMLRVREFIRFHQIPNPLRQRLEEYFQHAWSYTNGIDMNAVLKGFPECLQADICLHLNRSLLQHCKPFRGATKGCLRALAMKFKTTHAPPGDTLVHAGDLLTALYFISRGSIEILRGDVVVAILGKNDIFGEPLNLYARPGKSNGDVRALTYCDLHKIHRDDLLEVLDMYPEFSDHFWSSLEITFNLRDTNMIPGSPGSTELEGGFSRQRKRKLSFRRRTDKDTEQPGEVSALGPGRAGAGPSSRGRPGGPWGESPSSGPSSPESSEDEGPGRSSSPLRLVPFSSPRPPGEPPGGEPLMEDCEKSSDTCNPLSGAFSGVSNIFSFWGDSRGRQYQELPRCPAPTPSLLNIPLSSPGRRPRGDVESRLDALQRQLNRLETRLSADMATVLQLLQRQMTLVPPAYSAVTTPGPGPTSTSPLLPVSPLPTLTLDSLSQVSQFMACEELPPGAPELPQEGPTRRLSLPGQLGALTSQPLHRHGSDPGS

O=c1oc2ccc(F)cc2c2[nH]c(CN[C@H]3CC[C@H](n4c(=O)cnc5ncc(F)cc54)CC3)cc12 [Compound 4, 8-fluoro-2-({[trans-4-(7-fluoro-2-oxopyrido[2,3-b]pyrazin-1(2H)-yl)cyclohexyl]amino}methyl)[1]benzopyrano[4,3-b]pyrrol-4(1H)-one (formate salt)]
MIC [1]: 0.12 µg/mL
MIC [2]: 0.5 µg/mL
MIC [3]: 0.25 µg/mL
MIC [4]: 0.12 µg/mL
MIC [5]: 0.12 µg/mL
MIC [6]: 0.03 µg/mL
MIC range [7]: ≤0.06 to 0.5 µg/mL
MIC50 [7, 22]: 0.12 µg/mL
MIC90 [7, 23]: 0.5 µg/mL
MIC range [8]: ≤0.06 to 0.5 µg/mL
MIC50 [8]: 0.25 µg/mL
MIC90 [8]: 0.5 µg/mL

O=C1COc2ncc(F)cc2N1[C@H]1CC[C@H](NCc2cc3c(=O)oc4ccc(F)cc4c3[nH]2)CC1 [Compound 1, 8-fluoro-2-({[trans-4-(7-fluoro-2-oxo-2,3-dihydro-1H-pyrido[2,3-b][1,4]oxazin-1-yl)cyclohexyl]amino}methyl)[1]benzopyrano[4,3-b]pyrrol-4(1H)-one]
MIC [1]: ≤ 0.06 µg/mL
MIC [2]: ≤ 0.06 µg/mL
MIC [3]: 0.25 µg/mL (≈ 0.52 µM)
MIC [4]: 0.5 µg/mL (≈ 1.04 µM)
MIC [5]: 1 µg/mL (≈ 2.08 µM)
MIC [9]: 1 µg/mL (≈ 2.08 µM)
MIC [6]: 0.03 µg/mL (≈ 0.0624 µM)
MIC50 [7]: 0.125 µg/mL (≈ 0.26 µM)
MIC90 [7]: 0.5 µg/mL (≈ 1.04 µM)
MIC range [7]: 0.12 to 0.5 µg/mL
MIC ([7]; Staphylococcus aureus, MRSA, S. aureus APV0063, MRSA): 0.12 µg/mL (≈ 0.25 µM)
MIC ([7]; Staphylococcus aureus, MRSA, S. aureus APV0064, MRSA): 0.12 µg/mL (≈ 0.25 µM)
MIC ([7]; Staphylococcus aureus, MRSA, S. aureus APV0065, MRSA): 0.12 µg/mL (≈ 0.25 µM)
MIC ([7]; Staphylococcus aureus, S. aureus APV00045, M (macrolide resistance)): 0.5 µg/mL (≈ 1.04 µM)
MIC ([7]; Staphylococcus aureus, S. aureus APV0048, MLSi): 0.25 µg/mL (≈ 0.52 µM)
MIC ([7]; Staphylococcus aureus, S. aureus APV0049, MLSi): 0.5 µg/mL (≈ 1.04 µM)
MIC ([7]; Staphylococcus aureus, S. aureus APV0052, MLSc): 0.5 µg/mL (≈ 1.04 µM)
MIC ([7]; Staphylococcus aureus, S. aureus APV0053, MLSc): 0.25 µg/mL (≈ 0.52 µM)
MIC ([7]; Staphylococcus aureus, S. aureus APV00280, M (macrolide resistance)): 0.12 µg/mL (≈ 0.25 µM)
MIC ([7]; Staphylococcus aureus, S. aureus APV00281, M (macrolide resistance)): 0.12 µg/mL (≈ 0.25 µM)
MIC50 [7, 22]: 0.12 µg/mL (≈ 0.25 µM)
MIC90 [7, 23]: 0.5 µg/mL (≈ 1.04 µM)
MIC50 [10]: 1 µg/mL (≈ 2.08 µM)
MIC90 [10]: 1 µg/mL (≈ 2.08 µM)
MIC [10]: 0.25 to 2 µg/mL (≈ 0.52 to 4.16 µM)
MIC [11]: 0.25 to 16 µg/mL (≈ 0.52 to 33.3 µM)
MIC50 [11]: 1 µg/mL (≈ 2.08 µM)
MIC90 [11]: 1 µg/mL (≈ 2.08 µM)
MIC range [8]: ≤0.06 to 0.12 µg/mL
MIC50 [8]: 0.12 µg/mL (≈ 0.25 µM)
MIC90 [8]: 0.12 µg/mL (≈ 0.25 µM)
MBC/MIC [12]: 2
MBC ([12]; Escherichia coli, ATCC25922, ≥99.9% reduction of inoculum): 1 µg/mL (≈ 2.08 µM)
MBC/MIC [13]: 16
MBC ([13]; Staphylococcus aureus, ATCC29213, ≥99.9% reduction of inoculum): 4 µg/mL (≈ 8.33 µM)
MBC/MIC [14]: 2
MBC ([14]; Staphylococcus aureus, BAA1720, ≥99.9% reduction of inoculum): 1 µg/mL (≈ 2.08 µM)
Bactericidal activity in time-kill (reduction of 3 log10 CFU/ml) [15]: bactericidal effect
PAE compared with ciprofloxacin [16]: consistently higher
In vitro frequency of resistant mutants ([17]; S. aureus ATCC 29213, 2×MIC): TNTC
In vitro frequency of resistant mutants ([17]; S. aureus ATCC 29213, 4×MIC): 1.4×10^−7
inhibition at 10 µM [18]: ≤ 35%
inhibition at 10 µM [19]: 52%
IC50 [20]: 8.9 µM
Change of MIC in the presence of 20% human serum [21]: two-fold increase

Cl.O=c1oc2ccc(F)cc2c2[nH]c(CN[C@H]3CC[C@H](n4c(=O)ccc5ncc(F)cc54)CC3)cc12 [Compound 3, 8-fluoro-2-({[trans-4-(7-fluoro-2-oxo-1,5-naphthyridin-1(2H)-yl)cyclohexyl]amino}methyl)[1]benzopyrano[4,3-b]pyrrol-4(1H)-one hydrochloride]
MIC [1]: ≤ 0.06 µg/mL
MIC [2]: ≤ 0.06 µg/mL
MIC [3]: 0.12 µg/mL
MIC [4]: ≤ 0.06 µg/mL
MIC [5]: 0.12 µg/mL
MIC [9]: 0.25 µg/mL
MIC [6]: ≤ 0.016 µg/mL
MIC range [7]: ≤0.06 µg/mL
MIC50 [7, 22]: ≤ 0.06 µg/mL
MIC90 [7, 23]: ≤ 0.06 µg/mL
MIC50 [10]: 0.12 µg/mL
MIC90 [10]: 0.25 µg/mL
MIC [10]: 0.06 to 0.25 µg/mL
MIC [11]: 0.25 to 4 µg/mL
MIC50 [11]: 1 µg/mL
MIC90 [11]: 2 µg/mL
MIC range [8]: ≤0.06 to 0.12 µg/mL
MIC50 [8]: ≤ 0.06 µg/mL
MIC90 [8]: 0.12 µg/mL

Source: paper PMC7029851, “Antibacterial activity of novel dual bacterial DNA type II topoisomerase inhibitors” (PLoS ONE, 2020)
